Measurements: ChEMBL document CHEMBL1150977, “A quantitative analysis of kinase inhibitor selectivity” (Nat Biotechnol, 2008)

The molecules below were run against Serine/threonine-protein kinase Nek6 (Homo sapiens, UniProt Q9HC98).
Chain of Serine/threonine-protein kinase Nek6 (Q9HC98 whole entry): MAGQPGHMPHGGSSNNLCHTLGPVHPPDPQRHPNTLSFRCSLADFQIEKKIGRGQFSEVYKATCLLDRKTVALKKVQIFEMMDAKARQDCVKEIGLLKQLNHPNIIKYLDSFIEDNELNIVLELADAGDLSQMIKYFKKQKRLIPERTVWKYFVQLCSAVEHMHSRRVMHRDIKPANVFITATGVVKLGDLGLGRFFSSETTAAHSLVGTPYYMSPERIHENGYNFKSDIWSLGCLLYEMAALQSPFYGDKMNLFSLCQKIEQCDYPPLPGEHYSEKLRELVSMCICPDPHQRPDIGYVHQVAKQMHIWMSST
CCOc1cc2ncc(C#N)c(Nc3ccc(F)c(Cl)c3)c2cc1NC(=O)/C=C/CN(C)C [PELITINIB] gave a Kd of over 10 µM. With Nc1nc(Nc2ccc(S(N)(=O)=O)cc2)nn1C(=O)c1c(F)cccc1F [JNJ-7706621] the Kd was over 10 µM. Oc1ccc(-c2nc(-c3ccncc3)c(-c3ccc(F)cc3)[nH]2)cc1 [SB-202190] showed a Kd of over 10 µM. COCC(=O)NC/C=C/c1ccc2ncnc(Nc3ccc(Oc4ccc(C)nc4)c(C)c3)c2c1 [CP-724714] was tested, and the Kd was over 10 µM. NC(=O)c1ccc(-c2nc(-c3ccc4c(c3)OCO4)c(-c3ccccn3)[nH]2)cc1 [SB-431542] showed a Kd of over 10 µM. Molecule CCN1CCN(Cc2ccc(NC(=O)Nc3ccc(Oc4cc(NC)ncn4)cc3)cc2C(F)(F)F)CC1 [AST-487] has a Kd of over 10 µM.

What follows are molecules tested against Non-receptor tyrosine-protein kinase TYK2 (Homo sapiens, UniProt P29597).
Chain of Non-receptor tyrosine-protein kinase TYK2 (P29597 whole entry): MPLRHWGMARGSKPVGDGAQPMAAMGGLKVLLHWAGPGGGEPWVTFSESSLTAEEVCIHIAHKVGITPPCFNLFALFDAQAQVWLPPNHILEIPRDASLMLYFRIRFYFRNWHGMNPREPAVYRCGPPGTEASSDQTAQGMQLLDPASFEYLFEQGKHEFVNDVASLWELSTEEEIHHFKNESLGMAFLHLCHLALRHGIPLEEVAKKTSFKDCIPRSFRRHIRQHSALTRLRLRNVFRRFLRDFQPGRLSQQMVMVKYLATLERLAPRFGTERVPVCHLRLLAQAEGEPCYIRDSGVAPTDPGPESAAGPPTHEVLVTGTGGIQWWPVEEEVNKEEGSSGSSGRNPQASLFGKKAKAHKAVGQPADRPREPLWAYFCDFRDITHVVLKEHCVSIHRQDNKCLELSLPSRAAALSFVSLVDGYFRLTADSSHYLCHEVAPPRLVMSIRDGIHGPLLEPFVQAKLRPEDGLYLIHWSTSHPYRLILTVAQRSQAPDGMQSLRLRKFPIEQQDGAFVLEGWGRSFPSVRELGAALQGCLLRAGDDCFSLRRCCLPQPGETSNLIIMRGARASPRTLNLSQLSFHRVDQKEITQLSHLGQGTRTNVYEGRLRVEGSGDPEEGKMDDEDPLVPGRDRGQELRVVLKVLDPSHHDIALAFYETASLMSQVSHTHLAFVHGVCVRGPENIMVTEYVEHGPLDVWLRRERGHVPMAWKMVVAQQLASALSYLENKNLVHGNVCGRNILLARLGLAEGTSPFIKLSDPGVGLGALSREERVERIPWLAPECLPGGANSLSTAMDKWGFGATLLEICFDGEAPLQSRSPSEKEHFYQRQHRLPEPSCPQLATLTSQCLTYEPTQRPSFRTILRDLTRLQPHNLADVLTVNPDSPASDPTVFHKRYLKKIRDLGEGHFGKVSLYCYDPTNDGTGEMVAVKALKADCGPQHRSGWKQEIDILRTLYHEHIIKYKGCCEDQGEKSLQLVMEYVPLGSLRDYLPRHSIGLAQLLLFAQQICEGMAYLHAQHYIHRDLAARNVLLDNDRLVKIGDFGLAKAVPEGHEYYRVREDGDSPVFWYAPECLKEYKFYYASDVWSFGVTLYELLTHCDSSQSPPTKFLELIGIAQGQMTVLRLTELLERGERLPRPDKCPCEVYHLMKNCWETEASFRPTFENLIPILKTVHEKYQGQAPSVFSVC
Molecule CCOc1cc2ncc(C#N)c(Nc3ccc(F)c(Cl)c3)c2cc1NC(=O)/C=C/CN(C)C [PELITINIB] has a Kd of over 10 µM. With Nc1nc(Nc2ccc(S(N)(=O)=O)cc2)nn1C(=O)c1c(F)cccc1F [JNJ-7706621] the Kd was 0.032 µM. With Oc1ccc(-c2nc(-c3ccncc3)c(-c3ccc(F)cc3)[nH]2)cc1 [SB-202190] the Kd was over 10 µM. For COCC(=O)NC/C=C/c1ccc2ncnc(Nc3ccc(Oc4ccc(C)nc4)c(C)c3)c2c1 [CP-724714], the Kd was over 10 µM. NC(=O)c1ccc(-c2nc(-c3ccc4c(c3)OCO4)c(-c3ccccn3)[nH]2)cc1 [SB-431542] showed a Kd of over 10 µM. With CCN1CCN(Cc2ccc(NC(=O)Nc3ccc(Oc4cc(NC)ncn4)cc3)cc2C(F)(F)F)CC1 [AST-487] the Kd was 2.1 µM.

Each molecule was assayed against T1, Dual specificity mitogen-activated protein kinase kinase 3 (Homo sapiens, UniProt P46734).
T1 sequence (P46734 whole entry): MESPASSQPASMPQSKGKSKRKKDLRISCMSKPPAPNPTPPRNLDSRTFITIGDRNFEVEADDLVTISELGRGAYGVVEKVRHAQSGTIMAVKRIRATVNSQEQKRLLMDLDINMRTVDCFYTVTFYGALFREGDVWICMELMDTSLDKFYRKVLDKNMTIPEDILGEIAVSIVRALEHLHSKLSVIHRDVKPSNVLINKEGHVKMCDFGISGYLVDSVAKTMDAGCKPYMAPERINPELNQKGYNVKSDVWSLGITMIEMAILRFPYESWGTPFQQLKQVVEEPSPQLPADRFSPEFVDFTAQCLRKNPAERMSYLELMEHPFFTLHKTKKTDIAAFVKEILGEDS
In the case of CCOc1cc2ncc(C#N)c(Nc3ccc(F)c(Cl)c3)c2cc1NC(=O)/C=C/CN(C)C [PELITINIB], the Kd is reported as over 10 µM. For Nc1nc(Nc2ccc(S(N)(=O)=O)cc2)nn1C(=O)c1c(F)cccc1F [JNJ-7706621], the Kd was 1.5 µM. Oc1ccc(-c2nc(-c3ccncc3)c(-c3ccc(F)cc3)[nH]2)cc1 [SB-202190] showed a Kd of over 10 µM. With COCC(=O)NC/C=C/c1ccc2ncnc(Nc3ccc(Oc4ccc(C)nc4)c(C)c3)c2c1 [CP-724714] the Kd was over 10 µM. NC(=O)c1ccc(-c2nc(-c3ccc4c(c3)OCO4)c(-c3ccccn3)[nH]2)cc1 [SB-431542] showed a Kd of over 10 µM. In the case of CCN1CCN(Cc2ccc(NC(=O)Nc3ccc(Oc4cc(NC)ncn4)cc3)cc2C(F)(F)F)CC1 [AST-487], the Kd is reported as over 10 µM.

What follows are molecules tested against Glycogen synthase kinase-3 alpha (Homo sapiens, UniProt P49840).
Chain of Glycogen synthase kinase-3 alpha (P49840 whole entry): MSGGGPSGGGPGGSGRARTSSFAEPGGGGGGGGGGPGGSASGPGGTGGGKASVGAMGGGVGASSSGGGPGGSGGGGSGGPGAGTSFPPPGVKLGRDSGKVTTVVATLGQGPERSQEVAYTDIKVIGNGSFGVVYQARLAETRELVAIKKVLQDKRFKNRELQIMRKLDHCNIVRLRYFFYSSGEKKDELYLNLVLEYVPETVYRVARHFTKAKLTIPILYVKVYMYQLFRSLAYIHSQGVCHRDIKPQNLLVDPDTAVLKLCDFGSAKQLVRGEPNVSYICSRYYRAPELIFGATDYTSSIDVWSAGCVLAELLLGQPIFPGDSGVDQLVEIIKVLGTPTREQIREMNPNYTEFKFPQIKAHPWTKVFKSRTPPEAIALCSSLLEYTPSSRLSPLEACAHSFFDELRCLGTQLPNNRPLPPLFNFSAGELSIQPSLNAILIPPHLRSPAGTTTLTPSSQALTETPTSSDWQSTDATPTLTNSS
Molecule CCOc1cc2ncc(C#N)c(Nc3ccc(F)c(Cl)c3)c2cc1NC(=O)/C=C/CN(C)C [PELITINIB] has a Kd of over 10 µM. Nc1nc(Nc2ccc(S(N)(=O)=O)cc2)nn1C(=O)c1c(F)cccc1F [JNJ-7706621] gave a Kd of 0.16 µM. Molecule Oc1ccc(-c2nc(-c3ccncc3)c(-c3ccc(F)cc3)[nH]2)cc1 [SB-202190] has a Kd of over 10 µM. For COCC(=O)NC/C=C/c1ccc2ncnc(Nc3ccc(Oc4ccc(C)nc4)c(C)c3)c2c1 [CP-724714], the Kd was over 10 µM. In the case of NC(=O)c1ccc(-c2nc(-c3ccc4c(c3)OCO4)c(-c3ccccn3)[nH]2)cc1 [SB-431542], the Kd is reported as over 10 µM. Work on CCN1CCN(Cc2ccc(NC(=O)Nc3ccc(Oc4cc(NC)ncn4)cc3)cc2C(F)(F)F)CC1 [AST-487] yielded a Kd of over 10 µM.

What follows are molecules tested against T2, Ephrin type-A receptor 1 (Homo sapiens, UniProt P21709).
T2 sequence (P21709 whole entry): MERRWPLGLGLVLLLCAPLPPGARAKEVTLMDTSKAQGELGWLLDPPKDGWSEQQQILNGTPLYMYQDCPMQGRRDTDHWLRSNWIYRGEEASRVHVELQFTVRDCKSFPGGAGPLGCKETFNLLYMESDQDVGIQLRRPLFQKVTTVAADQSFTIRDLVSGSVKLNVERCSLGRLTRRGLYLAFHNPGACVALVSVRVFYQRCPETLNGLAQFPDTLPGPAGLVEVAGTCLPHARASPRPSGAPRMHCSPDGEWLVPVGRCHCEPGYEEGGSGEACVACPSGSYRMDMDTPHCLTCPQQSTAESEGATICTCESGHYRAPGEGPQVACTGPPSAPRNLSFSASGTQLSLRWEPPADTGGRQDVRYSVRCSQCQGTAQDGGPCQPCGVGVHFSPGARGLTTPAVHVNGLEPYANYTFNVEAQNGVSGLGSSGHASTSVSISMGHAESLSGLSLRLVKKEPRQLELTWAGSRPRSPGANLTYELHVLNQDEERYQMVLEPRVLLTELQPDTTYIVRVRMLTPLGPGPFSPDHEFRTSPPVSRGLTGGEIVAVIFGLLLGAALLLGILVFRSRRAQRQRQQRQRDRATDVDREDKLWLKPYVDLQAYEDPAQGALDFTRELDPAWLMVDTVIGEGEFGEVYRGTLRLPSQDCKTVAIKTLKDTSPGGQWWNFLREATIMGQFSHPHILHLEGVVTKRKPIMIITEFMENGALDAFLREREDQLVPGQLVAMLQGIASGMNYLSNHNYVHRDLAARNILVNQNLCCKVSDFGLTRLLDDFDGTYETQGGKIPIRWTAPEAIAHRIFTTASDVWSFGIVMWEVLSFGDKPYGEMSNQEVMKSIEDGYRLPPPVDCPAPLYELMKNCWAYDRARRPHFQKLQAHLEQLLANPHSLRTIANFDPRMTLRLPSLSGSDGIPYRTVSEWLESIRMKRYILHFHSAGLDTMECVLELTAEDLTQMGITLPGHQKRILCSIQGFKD
For CCOc1cc2ncc(C#N)c(Nc3ccc(F)c(Cl)c3)c2cc1NC(=O)/C=C/CN(C)C [PELITINIB], the Kd was over 10 µM. Nc1nc(Nc2ccc(S(N)(=O)=O)cc2)nn1C(=O)c1c(F)cccc1F [JNJ-7706621] was tested, and the Kd was over 10 µM. Oc1ccc(-c2nc(-c3ccncc3)c(-c3ccc(F)cc3)[nH]2)cc1 [SB-202190] was tested, and the Kd was over 10 µM. With COCC(=O)NC/C=C/c1ccc2ncnc(Nc3ccc(Oc4ccc(C)nc4)c(C)c3)c2c1 [CP-724714] the Kd was over 10 µM. Molecule NC(=O)c1ccc(-c2nc(-c3ccc4c(c3)OCO4)c(-c3ccccn3)[nH]2)cc1 [SB-431542] has a Kd of over 10 µM. CCN1CCN(Cc2ccc(NC(=O)Nc3ccc(Oc4cc(NC)ncn4)cc3)cc2C(F)(F)F)CC1 [AST-487] showed a Kd of over 10 µM.

The molecules below were run against Dual specificity protein kinase CLK3 (Homo sapiens, UniProt P49761).
Chain of Dual specificity protein kinase CLK3 (P49761 whole entry): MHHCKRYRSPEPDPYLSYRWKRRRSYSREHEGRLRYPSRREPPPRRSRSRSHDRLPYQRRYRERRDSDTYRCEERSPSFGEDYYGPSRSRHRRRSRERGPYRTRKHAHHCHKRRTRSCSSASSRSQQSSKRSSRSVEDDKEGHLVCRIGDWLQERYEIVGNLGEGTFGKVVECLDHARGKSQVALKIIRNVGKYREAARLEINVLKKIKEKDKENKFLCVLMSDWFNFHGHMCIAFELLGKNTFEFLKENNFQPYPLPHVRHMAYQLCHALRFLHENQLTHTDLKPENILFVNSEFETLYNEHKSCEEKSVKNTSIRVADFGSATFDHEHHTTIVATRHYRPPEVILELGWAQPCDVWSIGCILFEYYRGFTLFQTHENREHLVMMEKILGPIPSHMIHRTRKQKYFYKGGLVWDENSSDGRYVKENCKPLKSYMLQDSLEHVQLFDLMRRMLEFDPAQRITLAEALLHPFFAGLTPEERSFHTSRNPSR
Molecule CCOc1cc2ncc(C#N)c(Nc3ccc(F)c(Cl)c3)c2cc1NC(=O)/C=C/CN(C)C [PELITINIB] has a Kd of 5.6 µM. In the case of Nc1nc(Nc2ccc(S(N)(=O)=O)cc2)nn1C(=O)c1c(F)cccc1F [JNJ-7706621], the Kd is reported as 0.31 µM. Oc1ccc(-c2nc(-c3ccncc3)c(-c3ccc(F)cc3)[nH]2)cc1 [SB-202190] was tested, and the Kd was over 10 µM. COCC(=O)NC/C=C/c1ccc2ncnc(Nc3ccc(Oc4ccc(C)nc4)c(C)c3)c2c1 [CP-724714] showed a Kd of over 10 µM. With NC(=O)c1ccc(-c2nc(-c3ccc4c(c3)OCO4)c(-c3ccccn3)[nH]2)cc1 [SB-431542] the Kd was over 10 µM. With CCN1CCN(Cc2ccc(NC(=O)Nc3ccc(Oc4cc(NC)ncn4)cc3)cc2C(F)(F)F)CC1 [AST-487] the Kd was over 10 µM.

What follows are molecules tested against Serine/threonine-protein kinase 38-like (Homo sapiens, UniProt Q9Y2H1).
Chain of Serine/threonine-protein kinase 38-like (Q9Y2H1 whole entry): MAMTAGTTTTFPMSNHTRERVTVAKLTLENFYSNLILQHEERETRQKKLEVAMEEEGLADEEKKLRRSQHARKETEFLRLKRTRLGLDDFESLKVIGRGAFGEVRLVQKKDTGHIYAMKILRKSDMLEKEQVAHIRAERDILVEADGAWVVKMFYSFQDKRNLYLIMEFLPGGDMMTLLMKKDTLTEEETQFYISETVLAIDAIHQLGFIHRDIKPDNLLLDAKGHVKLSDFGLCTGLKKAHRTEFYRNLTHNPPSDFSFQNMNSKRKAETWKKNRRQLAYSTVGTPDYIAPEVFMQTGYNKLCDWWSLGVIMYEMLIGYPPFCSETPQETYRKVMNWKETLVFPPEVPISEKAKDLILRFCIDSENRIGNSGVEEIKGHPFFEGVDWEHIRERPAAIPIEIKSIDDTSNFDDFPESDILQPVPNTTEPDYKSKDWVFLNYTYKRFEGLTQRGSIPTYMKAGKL
With CCOc1cc2ncc(C#N)c(Nc3ccc(F)c(Cl)c3)c2cc1NC(=O)/C=C/CN(C)C [PELITINIB] the Kd was over 10 µM. Nc1nc(Nc2ccc(S(N)(=O)=O)cc2)nn1C(=O)c1c(F)cccc1F [JNJ-7706621] was tested, and the Kd was over 10 µM. Molecule Oc1ccc(-c2nc(-c3ccncc3)c(-c3ccc(F)cc3)[nH]2)cc1 [SB-202190] has a Kd of over 10 µM. With COCC(=O)NC/C=C/c1ccc2ncnc(Nc3ccc(Oc4ccc(C)nc4)c(C)c3)c2c1 [CP-724714] the Kd was over 10 µM. In the case of NC(=O)c1ccc(-c2nc(-c3ccc4c(c3)OCO4)c(-c3ccccn3)[nH]2)cc1 [SB-431542], the Kd is reported as over 10 µM. CCN1CCN(Cc2ccc(NC(=O)Nc3ccc(Oc4cc(NC)ncn4)cc3)cc2C(F)(F)F)CC1 [AST-487] showed a Kd of over 10 µM.

Each molecule was assayed against T3, Serine/threonine-protein kinase Nek9 (Homo sapiens, UniProt Q8TD19).
T3 sequence (Q8TD19 whole entry): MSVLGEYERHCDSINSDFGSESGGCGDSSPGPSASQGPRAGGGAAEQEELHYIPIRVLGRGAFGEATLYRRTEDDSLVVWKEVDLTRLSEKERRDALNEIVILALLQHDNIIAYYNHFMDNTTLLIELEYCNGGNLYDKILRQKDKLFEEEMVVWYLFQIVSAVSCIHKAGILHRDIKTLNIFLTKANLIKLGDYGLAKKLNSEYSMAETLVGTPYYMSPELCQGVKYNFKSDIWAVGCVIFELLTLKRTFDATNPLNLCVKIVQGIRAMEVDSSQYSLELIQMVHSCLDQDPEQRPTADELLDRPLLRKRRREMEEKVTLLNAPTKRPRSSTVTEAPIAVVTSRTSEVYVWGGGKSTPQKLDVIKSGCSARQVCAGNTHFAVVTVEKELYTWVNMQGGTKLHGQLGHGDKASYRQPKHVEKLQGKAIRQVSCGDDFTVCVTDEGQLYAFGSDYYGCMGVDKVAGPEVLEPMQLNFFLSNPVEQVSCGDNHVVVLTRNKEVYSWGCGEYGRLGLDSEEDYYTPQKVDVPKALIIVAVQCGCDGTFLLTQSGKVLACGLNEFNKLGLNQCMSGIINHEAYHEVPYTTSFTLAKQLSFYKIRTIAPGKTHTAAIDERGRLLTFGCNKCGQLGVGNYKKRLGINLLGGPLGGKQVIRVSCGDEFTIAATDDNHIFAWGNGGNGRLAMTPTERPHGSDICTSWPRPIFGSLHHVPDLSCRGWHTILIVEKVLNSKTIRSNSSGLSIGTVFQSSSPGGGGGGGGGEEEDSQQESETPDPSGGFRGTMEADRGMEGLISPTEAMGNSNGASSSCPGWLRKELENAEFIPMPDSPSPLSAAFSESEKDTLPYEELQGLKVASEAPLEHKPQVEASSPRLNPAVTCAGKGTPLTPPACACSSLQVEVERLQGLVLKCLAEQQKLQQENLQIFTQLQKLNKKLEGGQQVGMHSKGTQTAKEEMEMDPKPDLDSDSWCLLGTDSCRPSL
CCOc1cc2ncc(C#N)c(Nc3ccc(F)c(Cl)c3)c2cc1NC(=O)/C=C/CN(C)C [PELITINIB] showed a Kd of over 10 µM. Nc1nc(Nc2ccc(S(N)(=O)=O)cc2)nn1C(=O)c1c(F)cccc1F [JNJ-7706621] showed a Kd of over 10 µM. Work on Oc1ccc(-c2nc(-c3ccncc3)c(-c3ccc(F)cc3)[nH]2)cc1 [SB-202190] yielded a Kd of over 10 µM. Molecule COCC(=O)NC/C=C/c1ccc2ncnc(Nc3ccc(Oc4ccc(C)nc4)c(C)c3)c2c1 [CP-724714] has a Kd of over 10 µM. NC(=O)c1ccc(-c2nc(-c3ccc4c(c3)OCO4)c(-c3ccccn3)[nH]2)cc1 [SB-431542] gave a Kd of over 10 µM. In the case of CCN1CCN(Cc2ccc(NC(=O)Nc3ccc(Oc4cc(NC)ncn4)cc3)cc2C(F)(F)F)CC1 [AST-487], the Kd is reported as over 10 µM.

Each molecule was assayed against Insulin receptor (Homo sapiens, UniProt P06213).
Chain of Insulin receptor (P06213 28-758 limits assumed): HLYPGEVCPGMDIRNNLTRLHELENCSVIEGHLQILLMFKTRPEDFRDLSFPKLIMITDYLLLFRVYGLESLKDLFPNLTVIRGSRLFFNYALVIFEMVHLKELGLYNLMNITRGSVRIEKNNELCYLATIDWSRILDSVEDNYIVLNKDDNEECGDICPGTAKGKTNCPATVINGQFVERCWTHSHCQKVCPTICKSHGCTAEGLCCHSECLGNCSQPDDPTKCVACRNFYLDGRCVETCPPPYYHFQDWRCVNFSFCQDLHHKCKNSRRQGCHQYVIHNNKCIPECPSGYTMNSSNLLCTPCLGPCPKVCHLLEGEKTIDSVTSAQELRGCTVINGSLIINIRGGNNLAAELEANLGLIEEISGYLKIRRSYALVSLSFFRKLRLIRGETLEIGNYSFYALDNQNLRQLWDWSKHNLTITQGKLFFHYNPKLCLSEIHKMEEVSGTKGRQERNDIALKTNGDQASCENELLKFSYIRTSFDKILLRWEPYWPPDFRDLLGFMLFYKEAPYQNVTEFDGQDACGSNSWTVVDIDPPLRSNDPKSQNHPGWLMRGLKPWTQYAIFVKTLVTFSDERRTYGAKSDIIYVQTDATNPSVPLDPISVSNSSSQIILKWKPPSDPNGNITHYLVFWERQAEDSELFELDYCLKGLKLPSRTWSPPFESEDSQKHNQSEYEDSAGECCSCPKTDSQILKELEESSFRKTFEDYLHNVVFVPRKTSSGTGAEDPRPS
Chain of Insulin receptor (P06213 763-1382 limits assumed): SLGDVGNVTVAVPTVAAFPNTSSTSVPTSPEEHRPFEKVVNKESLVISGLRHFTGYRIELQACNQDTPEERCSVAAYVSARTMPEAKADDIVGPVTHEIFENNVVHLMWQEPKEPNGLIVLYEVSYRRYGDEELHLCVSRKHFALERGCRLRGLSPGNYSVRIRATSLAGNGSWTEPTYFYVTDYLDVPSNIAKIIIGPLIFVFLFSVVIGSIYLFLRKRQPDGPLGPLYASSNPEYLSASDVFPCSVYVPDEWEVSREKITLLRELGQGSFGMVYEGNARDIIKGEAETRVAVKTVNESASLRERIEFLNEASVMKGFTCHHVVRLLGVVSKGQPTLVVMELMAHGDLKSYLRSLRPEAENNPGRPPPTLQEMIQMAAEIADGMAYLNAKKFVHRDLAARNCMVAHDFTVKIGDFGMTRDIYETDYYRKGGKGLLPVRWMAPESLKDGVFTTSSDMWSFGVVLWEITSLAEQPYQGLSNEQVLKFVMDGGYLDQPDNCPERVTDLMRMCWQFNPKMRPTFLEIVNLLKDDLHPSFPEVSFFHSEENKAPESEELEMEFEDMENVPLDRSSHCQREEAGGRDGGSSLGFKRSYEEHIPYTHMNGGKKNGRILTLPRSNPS
Work on CCOc1cc2ncc(C#N)c(Nc3ccc(F)c(Cl)c3)c2cc1NC(=O)/C=C/CN(C)C [PELITINIB] yielded a Kd of over 10 µM. With Nc1nc(Nc2ccc(S(N)(=O)=O)cc2)nn1C(=O)c1c(F)cccc1F [JNJ-7706621] the Kd was over 10 µM. For Oc1ccc(-c2nc(-c3ccncc3)c(-c3ccc(F)cc3)[nH]2)cc1 [SB-202190], the Kd was over 10 µM. Work on COCC(=O)NC/C=C/c1ccc2ncnc(Nc3ccc(Oc4ccc(C)nc4)c(C)c3)c2c1 [CP-724714] yielded a Kd of over 10 µM. Work on NC(=O)c1ccc(-c2nc(-c3ccc4c(c3)OCO4)c(-c3ccccn3)[nH]2)cc1 [SB-431542] yielded a Kd of over 10 µM. In the case of CCN1CCN(Cc2ccc(NC(=O)Nc3ccc(Oc4cc(NC)ncn4)cc3)cc2C(F)(F)F)CC1 [AST-487], the Kd is reported as over 10 µM.
